The values that follow come from US8828922B2, “HSP therapy in conjunction with a low antigenicity diet” (Andromeda Biotech Ltd., priority 2004, dated 2014).

One experiment concerns NOD mice. To be noted: subcutaneous administration; cited from earlier work.
Experiment [1] relates to spleen-derived lymphocytes. To be noted: splenocytes from DiaPep277-treated rats; stimulation 5 or 25 microgram/ml; planned second study.
Procedure: In this study, the preventive dose or control (PBS) is administered on days 4-14 to large groups of rats (30 per treatment arm), and followed up for signs of diabetes, as above. In addition, five rats of each group are sacrificed at 2 weeks, 1, 2, 3, 4 and 5 months of age, and at each time point the spleen is removed to determine the cytokine profile. Determination of the cytokine profile is performed by subjecting the spleen-derived lymphocytes to the following stimuli: None; Concanavalin A (1 microgram/ml); DiaPep277 (5 microgram/ml); DiaPep277 (25 microgram/ml).
The next experiment has as its system BB-DP rats. Nature of the experiment: Diabetes incidence and onset after neonatal oral DiaPep277 with conventional or HC diet. It counts as in vivo, rat. The protocol: Experimental set-up: Group-housed BB-DP rats (breeding colony, Groningen, the Netherlands) were orally inoculated once per day with either placebo (aqua dist.) or Diapep277 at days 4, 5, 6 and 7 of life (black box in FIG. 1). Animals were treated in compliance with the principles of laboratory care (NIH publication no. 85-23, revised 1985) and the Dutch law on experimental animal care. Inoculation was done via a silicon-tube swallowed by the neonate and fluid was inoculated directly into the stomach. DiaPep277 was supplied by Peptor Ltd., Rehovot, Israel. It is an analog of the native 437-460 sequence of human hsp60, in which the existing cystein residues at positions 442 and 447 were replaced by valine, for better chemical stabilization. Per inoculation 300 μg/rat of Diapep277 in a volume of 300 μl was administered. At the age of 21 days (gray box in FIG. 1) rats were weaned either on a conventional, cereal-based diet (Hope Farms, rodent diet no. Rmh-B2181, Woerden, Netherlands) or on HC-diet, a modification of the AIN-93G diet containing 20% hydrolyzed casein (Pancase S; Redstar Bioproducts, Tara, Canada) as the source of aminoacids, 53% corn starch, 12% sucrose, 5% corn oil, 5% cellulose-type fiber (Solka-Floc; Teklad, Madison, Wis.) (Visser J. et al., 2003, Metabolism 52, 333-337, Scott F W et al., 1997, Diabetes 46, 589-598). In this study both sexes were used. In our colony 80% to 90% of the BB-DP rats spontaneously develop diabetes before the age of 130 days, with no gender differences. Body weights were measured three times per week. […] The degree of islet infiltration was measured using a Zeiss microscope and was rated as previously described (Visser J. et al., 2003, Metabolism 52, 333-337) with the addition of score 5 which is developed in our lab, to control for completely destroyed islets in severe insulitis. Per pancreas section, an average histological insulitis score was calculated by adding up the score of each islet and dividing it by the total number of islets counted. […]

No end group written: not given here.

In the case of “VLGGGCALLRCIPALDSLTPANED (cysteine pairing not given here) [p277, residues 437-460 of human Hsp60]”, the “development of diabetes (in words)” value in the experiment on NOD mice was “prevented the development of diabetes”.

As to VLGGGVALLRVIPALDSLTPANED [DiaPep277], the “cytokine response of splenocytes on DiaPep277 stimulation (in words)” value in experiment [1] is given as “focused Th2/Treg response”. In addition, the diabetes incidence with BB-DP rats (BB-DP rats, oral 300 μg/rat/day at days 4-7 of life, diet from weaning (day 21), followed to 140 days) is 69%. The “improved chance of not developing diabetes” value in the experiment on BB-DP rats (all animals receiving DiaPep277, endpoint analysis, χ^2) amounted to 2.2 fold. Moreover, the “protection against diabetes (in words)” value in the experiment with BB-DP rats (neonatal oral administration alone, conventional diet) is recorded as “did not lead to significant protection”.
